In patent publication US20230228744A1, “DRY EYE DISEASE BIOMARKERS AND THEIR USE FOR TREATMENT” (Aldeyra Therapeutics, Inc., priority 2020, published 2023):
“Also recorded” adds a separate entry of the source.

What was measured:
[1] = test system: malondialdehyde (MDA) adducts in tears; assay: Phase 2a clinical study, MDA adduct competitive ELISA in tears; type: in vivo, human; settings: 28 days (4 weeks) of treatment, pooled reproxalap groups
Text: The study was to assess levels of malondialdehyde (MDA) adducts in tears collected from subjects with dry eye disease enrolled in a Phase 2a, randomized, double-masked, clinical study to assess the safety, tolerability, and pharmacodynamic activity of ADX-102 ophthalmic solution in subjects with dry eye diseases, also referred to herein as dry eye syndrome (DES).
Tears were collected during Visit 1, prior to treatment, and during Visit 3, following four weeks of treatment. Treatment groups consisted of ADX-102 Ophthalmic Solution (0.5%), ADX-102 Ophthalmic Solution (0.1%), and ADX-102 Ophthalmic Lipid Solution (0.5%). […]
The assay is a competitive ELISA. […] The plate is read in a microplate reader at 450 nm. The assay OD reading decreases with increasing MDA adducts in the samples, as the adsorbed MDA competes for binding to the MDA antibody with MDA adducts in the test sample. […]
DES Study Samples. Based on the results of the pilot assay, a 1:60 dilution was determined to maximize the likelihood of the OD values falling within the linear portion of the standard curve, and thus provide the most accurate results. All tear samples from subjects (0.5% ADX-102 Ophthalmic Solution) and (0.1% ADX-102 Ophthalmic Solution) were analyzed, but results from some tear samples were excluded from the data analysis due to contamination with ocular staining dye in the Visit 3 samples. […]

[2] = test system: RASP (reactive aldehyde species); assay: In vitro RASP elimination by reproxalap; type: biochemical; settings: reproxalap at equimolar concentrations
Text: Regarding the use of tear RASP levels as a clinical endpoint, it is important to note that this is (to date) unprecedented. The FDA has not agreed to the use of RASP before as a clinical endpoint. In this regard, we have reached agreement with the US Food and Drug Administration (FDA) for the use of RASP (reactive aldehyde species) as an objective sign for the treatment of dry eye disease. RASP are pre-cytokine pro-inflammatory mediators that are elevated in the tears of patients with dry eye disease, and correlate with dry eye disease symptoms and signs. […] In in vitro studies, RASP were eliminated within 60 to 90 minutes when exposed to reproxalap at equimolar concentrations. […] The use of RASP as a trial endpoint represents the first novel objective sign for the treatment in dry eye disease in over a decade.

CC(C)(O)c1nc2ccc(Cl)cc2cc1N [reproxalap, Reproxalap]
tear MDA adduct / RASP levels after treatment relative to baseline (pooled groups) [1]: reduction in tear RASP levels; also recorded: statistically lower | time to elimination of RASP [2]: 60 to 90 min
